31 compounds from paper PMC8286840, “Identifying SARS-CoV-2 antiviral compounds by screening for small molecule inhibitors of Nsp3 papain-like protease” (Biochemical Journal, 2021) can be followed below.

Assay [1] addresses T1, SARS-CoV-2 PLpro (nsp3 1564–1878) (Severe acute respiratory syndrome coronavirus 2, UniProt P0DTD1). Description: biochemical. The conditions noted are these: low concentration screen, read-out: % of control remaining. Further details: FRET-quenched peptide (Pro3) cleavage by PLpro, 10 min pre-incubation, slope over 20 min, normalised to no-compound control.
Assay [2] has as its target T1, SARS-CoV-2 PLpro (nsp3 1564–1878). Description: biochemical. Further details: FRET-quenched peptide (Pro3) cleavage by PLpro, 10 min pre-incubation, slope over 20 min, normalised to no-compound control. The following applies: high concentration screen, read-out: % of control remaining.

Structures are written as SMILES. Where a name gives a salt, the structure may show the parent alone. Read-outs that look alike come from different tables or passages of the source.

In the case of `COc1cc2c(cc1-c1c(C)noc1C)ncc1[nH]c(=O)n([C@H](C)c3ccccn3)c12` [7-(3,5-dimethyl-4-isoxazolyl)-8-methoxy-1-[(1R)-1-(2-pyridinyl)ethyl]-1,3-dihydro-2H-imidazo[4,5-c]quinolin-2-one], the remaining activity at 1.25 µM in assay [1] (Well no.=5813) came to 101%. For the same compound, in assay [2] (Well no.=5813), the remaining activity at 3.75 µM was determined as 102%.
Regarding `CC(=O)OCC1=C(C(=O)O)N2C(=O)[C@@H](N)[C@H]2SC1` [7-Aminocephalosporanic acid], the remaining activity at 1.25 µM in assay [1] (Well no.=5286) came out at 98.5%. Moreover, the remaining activity at 3.75 µM in assay [2] (Well no.=5286) is 96%.
For the compound `O=c1cc(-c2ccccc2)[nH]c2nc(Cl)ccc12` [7-Chloro-4-hydroxy-2-phenyl-1,8-naphthyridine], in assay [1] (Well no.=324), the remaining activity at 1.25 µM was 98.8%. The remaining activity at 3.75 µM in assay [2] (Well no.=324) amounted to 99.1%.
As to `O=C(O)c1cc(O)c2ccc(Cl)cc2n1` [7-Chlorokynurenic acid], in assay [1] (Well no.=581), the remaining activity at 1.25 µM came to 104%. Moreover, in assay [2] (Well no.=581), the remaining activity at 3.75 µM turned out to be 103%.
Take `O=c1cc(-c2ccccc2)oc2cc(O)ccc12` [7-Hydroxyflavone]: the remaining activity at 1.25 µM in assay [1] (Well no.=3293) is 97.8%. In assay [2] (Well no.=3293), the remaining activity at 3.75 µM is 103%.
Take `O=[N+]([O-])c1cccc2cn[nH]c12` [7-Nitroindazole]: the remaining activity at 1.25 µM in assay [1] (Well no.=955) turned out to be 107%. Besides, the remaining activity at 3.75 µM in assay [2] (Well no.=955) came out at 100%.
On to `O=C(CCCCCCc1ccccc1)c1ncc(-c2ccccn2)o1` [7-phenyl-1-[5-(2-pyridinyl)-1,3-oxazol-2-yl]-1-heptanone], for which, in assay [1] (Well no.=5997), the remaining activity at 1.25 µM was 92.2%. Besides, the remaining activity at 3.75 µM in assay [2] (Well no.=5997) was found to be 91.9%.
In the case of `O=c1ccc2cc3ccoc3cc2o1` [7H-furo[3,2-g]chromen-7-one], the remaining activity at 1.25 µM in assay [1] (Well no.=5431) worked out at 101%. Further, in assay [2] (Well no.=5431), the remaining activity at 3.75 µM is 104%.
With `CCCCC[C@H](O)/C=C/C=C/C=C/[C@H](O)C/C=C\CCCC(=O)O` [8(R),15(S)-DIHETE all trans], in assay [1] (Well no.=4377), the remaining activity at 1.25 µM was found to be 102%. In assay [2] (Well no.=4377), the remaining activity at 3.75 µM was found to be 105%.
In the case of `CCCCC[C@H](O)/C=C/C=C\C=C\[C@@H](O)C/C=C\CCCC(=O)O` [8(S),15(S)-DIHETE], in assay [1] (Well no.=4371), the remaining activity at 1.25 µM is 102%. The remaining activity at 3.75 µM in assay [2] (Well no.=4371) stood at 99.4%.
For `CCCCC/C=C\C/C=C\C/C=C\CCCCCCC(=O)O` [8(Z), 11(Z), 14(Z)-Eicosatrienoic Acid], the remaining activity at 1.25 µM in assay [1] (Well no.=4548) was 91.1%. For the same compound, the remaining activity at 3.75 µM in assay [2] (Well no.=4548) is 96.4%.
For the compound `CCCCCCCCCCC/C=C\CCCCCCC(=O)O` [8(Z)-Eicosenoic acid], in assay [1] (Well no.=4404), the remaining activity at 1.25 µM is 102%. In addition, the remaining activity at 3.75 µM in assay [2] (Well no.=4404) was 102%.
For the compound `Cn1c(=O)c2c(nc(/C=C/c3cccc(Cl)c3)n2C)n(C)c1=O` [8-(3-Chlorostyryl)caffeine], the remaining activity at 1.25 µM in assay [1] (Well no.=727) was determined as 100%. In assay [2] (Well no.=727), the remaining activity at 3.75 µM turned out to be 97.2%.
Turning to `Nc1ncnc2c1nc(Sc1ccc(Cl)cc1)n2C1OC2COP(=O)(O)O[C@@H]2[C@@H]1O` (stereo partly shown) [8-(4-Chlorophenylthio)-cAMP sodium], the remaining activity at 1.25 µM in assay [1] (Well no.=126) stood at 104%. Besides, in assay [2] (Well no.=126), the remaining activity at 3.75 µM came out at 105%.
With `Nc1ncnc2c1nc(Br)n2[C@@H]1O[C@@H]2COP(=O)(O)O[C@H]2[C@H]1O` [8-Bromo-cAMP sodium], the remaining activity at 1.25 µM in assay [1] (Well no.=129) turned out to be 108%. The remaining activity at 3.75 µM in assay [2] (Well no.=129) was 111%.
For the compound `Nc1nc2c(nc(Br)n2[C@@H]2O[C@@H]3COP(=O)(O)O[C@H]3[C@H]2O)c(=O)[nH]1` [8-Bromo-cGMP sodium], the remaining activity at 1.25 µM in assay [1] (Well no.=214) was 102%. In addition, the remaining activity at 3.75 µM in assay [2] (Well no.=214) turned out to be 102%.
`Cn1c(=O)c2[nH]c(C3CCCC3)nc2n(C)c1=O` [8-Cyclopentyl-1,3-dimethylxanthine]: the remaining activity at 1.25 µM in assay [1] (Well no.=723) was found to be 98.4%. In assay [2] (Well no.=723), the remaining activity at 3.75 µM was found to be 101%.
Take `CCCn1c(=O)c2[nH]c(C3CCCC3)nc2n(CCC)c1=O` [8-Cyclopentyl-1,3-dipropylxanthine]: the remaining activity at 1.25 µM in assay [1] (Well no.=675) is 93.6%. Moreover, in assay [2] (Well no.=675), the remaining activity at 3.75 µM was 97.1%.
Turning to `Nc1nc2c([nH]c(=O)n2[C@H]2C[C@H](O)[C@@H](CO)O2)c(=O)[nH]1` [8-Hydroxy-2'-deoxyguanosine], the remaining activity at 1.25 µM in assay [1] (Well no.=7113) came to 105%. Also, in assay [2] (Well no.=7113), the remaining activity at 3.75 µM amounted to 105%.
Consider `COCc1nc2c([nH]1)c(=O)n(C)c(=O)n2CC(C)C` [8-Methoxymethyl-3-isobutyl-1-methylxanthine], for which, in assay [1] (Well no.=970), the remaining activity at 1.25 µM was found to be 103%. Moreover, in assay [2] (Well no.=970), the remaining activity at 3.75 µM turned out to be 102%.
Take `CCCCC/C=C/C/C=C/CCCCCCCC(=O)O` [9(E),12(E)-Octadecadienoic acid]: the remaining activity at 1.25 µM in assay [1] (Well no.=4356) worked out at 105%. Further, the remaining activity at 3.75 µM in assay [2] (Well no.=4356) was 104%.
As for `CCCCC/C=C\C=C\[C@H](CCCCCCCC(=O)O)OO` [9(S)-HPODE], the remaining activity at 1.25 µM in assay [1] (Well no.=4386) came out at 97.7%. In addition, in assay [2] (Well no.=4386), the remaining activity at 3.75 µM is 98%.
Consider `CCCCCCCC/C=C\CCCCCCCC(=O)O` [9(Z)-Octadecenoic acid], for which, in assay [1] (Well no.=4590), the remaining activity at 1.25 µM was 101%. Further, the remaining activity at 3.75 µM in assay [2] (Well no.=4590) stood at 98.1%.
For `CCCC/C=C\CCCCCCCC(=O)O` [9(Z)-Tetradecenoic acid], the remaining activity at 1.25 µM in assay [1] (Well no.=4268) was determined as 102%. Moreover, in assay [2] (Well no.=4268), the remaining activity at 3.75 µM amounted to 98%.
As to `O=C1NC(=O)c2c1c1c3ccccc3n3c1c1c2c2ccccc2n1C1CCC3O1` [9,10,11,12-Tetrahydro-9,12-epoxy-1H-diindolo[1,2,3-fg:3',2',1'-kl]pyrrolo[3,4-i][1,6]benzodiazocine-1,3(2H)-dione], the remaining activity at 1.25 µM in assay [1] (Well no.=2578) came out at 99%. Moreover, the remaining activity at 3.75 µM in assay [2] (Well no.=2578) amounted to 101%.
For the compound `CN1C[C@H](CO)C[C@@H]2c3cccc4[nH]cc(c34)C[C@H]21` [9,10-Dihydrolysergol], in assay [1] (Well no.=3468), the remaining activity at 1.25 µM amounted to 108%. Also, the remaining activity at 3.75 µM in assay [2] (Well no.=3468) was 109%.
For `Nc1c2c(nc3ccccc13)CCCC2` [9-Amino-1,2,3,4-tetrahydroacridine hydrochloride], the remaining activity at 1.25 µM in assay [1] (Well no.=157) came out at 102%. The remaining activity at 3.75 µM in assay [2] (Well no.=157) worked out at 102%.
`CC1=C(/C=C/C(C)=C\C=C\C(C)=C\C(=O)O)C(C)(C)CCC1` [9-cis Retinoic acid]: the remaining activity at 1.25 µM in assay [1] (Well no.=3136) is 98.3%; in assay [1] (Well no.=4428) it was 103%. The remaining activity at 3.75 µM in assay [2] (Well no.=3136) came to 95.8%; in assay [2] (Well no.=4428), 102%.
Take `c1ccc2c(Oc3nc(Nc4ccc(N5CCOCC5)cc4)c4ncn(C5CCCCC5)c4n3)cccc2c1` [9-cyclohexyl-N-[4-(4-morpholinyl)phenyl]-2-(1-naphthyloxy)-9H-purin-6-amine]: the remaining activity at 1.25 µM in assay [1] (Well no.=5695) stood at 98.5%. Further, the remaining activity at 3.75 µM in assay [2] (Well no.=5695) was 97.8%.
Turning to `Nc1ncnc2c1ncn2C1CCCC1` [9-cyclopentyladenine], in assay [1] (Well no.=176), the remaining activity at 1.25 µM came to 93.3%. Besides, the remaining activity at 3.75 µM in assay [2] (Well no.=176) came to 91.5%.
As to `CCCCC[C@@H](O)/C=C/[C@H]1[C@H](C/C=C\CCCC(=O)O)[C@@H](O)C[C@@H]1O` [9b,11a Prostaglandin F2], the remaining activity at 1.25 µM in assay [1] (Well no.=4521) is 101%. Further, in assay [2] (Well no.=4521), the remaining activity at 3.75 µM was 103%.
